Laboratory results published in PubChem BioAssay AID2202554 (NIEHS Division of Translational Toxicology (DTT)).
Inconclusive results are not listed. The source made the active and inactive calls. No rule for the calls is given here.

System: S. typhimurium/E. coli reverse mutation, colony counts
Test: Bacterial reverse mutation test (aka Ames test) summary data
Outline: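 S. typhimurium his⁻ strains (TA97–TA1538) and E. coli WP2 uvrA pKM101 trp⁻, dosed over a range with or without rat, hamster or mouse liver S9. Preincubated 20 min at 37° C (or plate incorporation), plated in agar, incubated usually two days. Revertant colonies counted against negative controls.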

**Q.** `CC1OC(C)OC(C)O1` (centres undefined) was tested. Which outcome did it give?
**A.** active; positive

**Q.** How did the outcome turn out when `CCOC(C)OCC` was run?
**A.** active; positive

**Q.** With `OCCC(F)(F)C(F)(F)C(F)(F)C(F)(F)C(F)(F)C(F)(F)C(F)(F)C(F)(F)C(F)(F)C(F)(F)F` as the compound, how does the outcome read?
**A.** inactive; negative

**Q.** How did the outcome turn out when `COC(=O)[C@H]1[C@H]2C[C@@H]3c4[nH]c5cc(OC)ccc5c4CCN3C[C@H]2C[C@@H](OC(=O)/C=C/c2cc(OC)c(OC)c(OC)c2)[C@@H]1OC` was run?
**A.** inactive; negative

**Q.** `NCN` was tested. Which outcome did it give?
**A.** active; positive

**Q.** With `Oc1cc(Cl)c(Cl)c(Cl)c1Cl` as the compound, how does the outcome read?
**A.** inactive; negative

**Q.** How did the outcome turn out when `NNC(N)=S` was run?
**A.** inactive; negative

**Q.** For `O=Cc1ccccc1C=O`, which outcome is on record?
**A.** active; positive

**Q.** How did the outcome turn out when `CC1CNCC(C)O1` (centres undefined) was run?
**A.** active; positive

**Q.** `Nc1ccc(O)c(N)c1` was tested. Which outcome did it give?
**A.** active; positive

**Q.** How did the outcome turn out when `O=C1NS(=O)(=O)c2ccccc21` was run?
**A.** inactive; negative

**Q.** How did the outcome turn out when `c1ccc2cc3c(cc2c1)-c1cccc2cccc-3c12` was run?
**A.** active; positive

**Q.** How did the outcome turn out when `OCC(Cl)Cl` was run?
**A.** active; weakly positive

**Q.** `c1ccc(N=NNc2ccccc2)cc1` was tested. Which outcome did it give?
**A.** active; positive

**Q.** `COCCOC(=O)c1ccccc1C(=O)OCCOC` was tested. Which outcome did it give?
**A.** active; positive

**Q.** `ClC(Cl)=C(c1ccc(Cl)cc1)c1ccc(Cl)cc1` was tested. Which outcome did it give?
**A.** inactive; negative

**Q.** For `ICCc1ccccc1`, which outcome is on record?
**A.** inactive; negative

**Q.** `O=C(NCNC(=O)NC1C(=O)NC(=O)N1CO)NC1C(=O)NC(=O)N1CO` (centres undefined) was tested. Which outcome did it give?
**A.** active; positive

**Q.** Which outcome does the source give for `O=[N+]([O-])c1ccc(Cl)cc1` here?
**A.** active; positive

**Q.** With `N#CSCSC#N` as the compound, how does the outcome read?
**A.** inactive; negative

**Q.** Which outcome does the source give for `O=[N+]([O-])c1ccc(O)c([N+](=O)[O-])c1` here?
**A.** inactive; negative

**Q.** With `NNC(N)=O` as the compound, how does the outcome read?
**A.** inactive; negative

**Q.** Which outcome does the source give for `O=C1c2c(O)ccc(Nc3ccc(CCO)cc3)c2C(=O)c2c([N+](=O)[O-])ccc(O)c21` here?
**A.** active; positive

**Q.** Which outcome does the source give for `Cc1cccc(Br)c1` here?
**A.** inactive; negative

**Q.** For `Cc1ccc2nc(-c3ccc(N)cc3)sc2c1`, which outcome is on record?
**A.** active; positive

**Q.** `OC[C@H]1O[C@@H](Oc2ccc(O)cc2)[C@H](O)[C@@H](O)[C@@H]1O` was tested. Which outcome did it give?
**A.** inactive; negative

**Q.** For `O=[N+]([O-])c1ccccc1Nc1ccccc1`, which outcome is on record?
**A.** inactive; negative

**Q.** With `C1COC1` as the compound, how does the outcome read?
**A.** active; positive

**Q.** Which outcome does the source give for `Nc1ccc(O)c([N+](=O)[O-])c1` here?
**A.** active; positive

**Q.** `ONc1ccccc1` was tested. Which outcome did it give?
**A.** active; positive

**Q.** `CC1=CC[C@H]2C(C)=CC[C@@H](C(C)C)[C@@H]2C1` was tested. Which outcome did it give?
**A.** inactive; negative

**Q.** For `BrC(Br)Br`, which outcome is on record?
**A.** active; positive

**Q.** `O=C(O)c1ccc(O)cc1O` was tested. Which outcome did it give?
**A.** inactive; negative

**Q.** Which outcome does the source give for `C[N+](C)=c1ccc2nc3ccc(N)cc3sc-2c1` here?
**A.** active; positive

**Q.** For `CNc1ccccc1N`, which outcome is on record?
**A.** active; positive

**Q.** For `CCCCC(C=O)CC` (centres undefined), which outcome is on record?
**A.** inactive; negative

**Q.** Which outcome does the source give for `CCN(C(=O)N(CC)c1ccccc1)c1ccccc1` here?
**A.** inactive; negative

**Q.** `C=CCC1(C(C)C#CCC)C(=O)N=C(O)N(C)C1=O` (centres undefined) was tested. Which outcome did it give?
**A.** inactive; negative

**Q.** With `CN(C(=O)CN(CCO)CC(=O)N(C)C(C)(C)Cc1ccccc1)C(C)(C)Cc1ccccc1` as the compound, how does the outcome read?
**A.** inactive; negative

**Q.** How did the outcome turn out when `ClCBr` was run?
**A.** active; positive

**Q.** With `Nc1c2ccccc2nc2ccccc12` as the compound, how does the outcome read?
**A.** active; positive

**Q.** How did the outcome turn out when `c1ccsc1` was run?
**A.** inactive; negative

**Q.** With `OCC=CCO` as the compound, how does the outcome read?
**A.** active; positive

**Q.** How did the outcome turn out when `CC1CCCCC1CO` (centres undefined) was run?
**A.** inactive; negative

**Q.** With `C1COCCN1` as the compound, how does the outcome read?
**A.** inactive; negative

**Q.** With `Cc1cc(O)ccc1Cl` as the compound, how does the outcome read?
**A.** inactive; negative

**Q.** With `O=C1NC(=O)C(c2ccccc2)(c2ccccc2)N1` as the compound, how does the outcome read?
**A.** inactive; negative

**Q.** How did the outcome turn out when `CCCCCCCCc1ccc(Nc2ccc(CCCCCCCC)cc2)cc1` was run?
**A.** inactive; negative

**Q.** Which outcome does the source give for `O=C1c2ccccc2-c2ccc3c4c(ccc1c24)-c1ccccc1C3=O` here?
**A.** inactive; negative

**Q.** Which outcome does the source give for `CC(C)Oc1ccc(Nc2ccccc2)cc1` here?
**A.** inactive; negative

**Q.** For `OCC(O)CI` (centres undefined), which outcome is on record?
**A.** active; positive

**Q.** Which outcome does the source give for `c1ccc(N=Nc2ccccc2)cc1` here?
**A.** active; positive

**Q.** `Nc1ccc(Cc2ccc(N)cc2)cc1` was tested. Which outcome did it give?
**A.** active; positive

**Q.** For `CCC(C)(C)c1ccc(O)cc1`, which outcome is on record?
**A.** inactive; negative

**Q.** How did the outcome turn out when `CC=C1CC2C=CC1C2` (centres undefined) was run?
**A.** inactive; negative

**Q.** How did the outcome turn out when `CC(=O)Nc1ccccc1C` was run?
**A.** active; positive

**Q.** How did the outcome turn out when `CCOc1ccc2c(c1)C(C)=CC(C)(C)N2` was run?
**A.** inactive; negative

**Q.** `CCOc1ccccc1C(N)=O` was tested. Which outcome did it give?
**A.** inactive; negative

**Q.** `N#CCCC#N` was tested. Which outcome did it give?
**A.** inactive; negative

**Q.** How did the outcome turn out when `C=CC(=O)OCCBr` was run?
**A.** active; positive

**Q.** With `C=CC(=O)OCC(CO)(COC(=O)C=C)COC(=O)C=C` as the compound, how does the outcome read?
**A.** inactive; negative

**Q.** `CCCCCCCCCCCC(=O)O` was tested. Which outcome did it give?
**A.** inactive; negative

**Q.** How did the outcome turn out when `Nc1ncn([C@@H]2O[C@H](CO)[C@@H](O)[C@H]2O)c(=O)n1` was run?
**A.** active; positive

**Q.** For `C#C[C@]1(O)CC[C@H]2[C@@H]3CCc4cc(O)ccc4[C@H]3CC[C@@]21C`, which outcome is on record?
**A.** inactive; negative
